The values that follow come from the supplement of paper PMC4862054.

Structures are written as SMILES. “And” between values parts separate entries of the source, which are not always exact repeats. Equal values may be shown once.

In experiment [1] the test system is CAL-148. In words: normalised viability (% of control), CellTiter-Blue; higher = more viable cells (about 100 = DMSO control). The settings on record: incubation time: 72 h. The procedure: (§1)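 DSRT, CellTiter-Blue viability, 72 h incubation. Signal is normalised to DMSO and benzethonium chloride controls. Value is the normalised response at dose 9.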
In general terms: Resazurin is reduced to fluorescent resorufin, in cell work by metabolically active cells.

In experiment [2] the test system is HDQ-P1. The description is as above. Conditions: incubation time: 72 h. The procedure: as §1
Experiment [3] relates to MDA-MB-453. The description is as above. Conditions: incubation time: 72 h. On the procedure: as §1
Experiment [4] deals with CAL-51. The experiment is described as above. Conditions: incubation time: 72 h. The procedure:
as §1

In experiment [5] the test system is CAL-85-1. The experiment is described as above. The settings on record: incubation time: 72 h. The procedure: as §1
Experiment [6] concerns DU-4475. Described as above. Conditions: incubation time: 72 h. On the procedure:
as §1

Experiment [7] relates to CAL-120. Description: normalised response (% of control), CellTiter-Glo; higher = more viable cells (100 = DMSO, 0 = benzethonium chloride kill control). The settings on record: incubation time: 72 h. The essentials: (§2)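 Compound was dispensed into 384-well plates at 5 concentrations in 10-fold steps spanning a 10,000-fold range specific to that compound. Breast cancer cell lines were added as 20 µl suspension and left for 72 h before CellTox Green fluorescence (485/520 nm) and then CellTiter-Glo luminescence, read after 10 min at room temperature. Each reported value is the normalised signal at one concentration, with 0.1 % DMSO set at 100 and a positive kill control at 0 on each plate.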
(In general: Cellular ATP, detected with luciferase, serves as a proxy for viable cell number.)

Experiment [8] has as its system HCC1143. The description is as above. Conditions: incubation time: 72 h. The essentials:
as §2

For experiment [9], the system named is MFM-223. The description is as above. Conditions: incubation time: 72 h. The gist of the method:
as §2

In experiment [10] the test system is Hs578T. Described as above. The settings on record: incubation time: 72 h. The gist of the method: as §2
For experiment [11], the system named is HCC1599. Described as above. The settings on record: incubation time: 72 h. The gist of the method: as §2
The subject of experiment [12] is BT-474. Described as above. The settings on record: incubation time: 72 h. The gist of the method: as §2
Experiment [13] relates to HDQ-P1. The description is as above. The settings on record: incubation time: 72 h. The gist of the method: as §2
Experiment [14] has as its system HCC1937. The description is as above. The settings on record: incubation time: 72 h. The essentials:
as §2

Experiment [15] concerns MDA-MB-231. The description is as above. Conditions: incubation time: 72 h. The gist of the method:
as §2

Experiment [16] relates to MDA-MB-453. The experiment is described as above. The settings on record: incubation time: 72 h. The essentials:
as §2

Experiment [17] deals with CAL-85-1. The description is as above. Conditions: incubation time: 72 h. The gist of the method: as §2
Experiment [18] concerns DU-4475. The description is as above. Conditions: incubation time: 72 h. The gist of the method:
as §2

For experiment [19], the system named is CAL-148. The settings on record: 72 h. The essentials: (§3)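 Seeding of breast cancer cell lines (20 µl suspension) was done into 384-well plates pre-loaded with compound at 5 concentrations, 10-fold apart, covering a compound-specific 10,000-fold range. The plates were incubated for 72 h, read for CellTox Green fluorescence (485/520 nm), and then read for CellTiter-Glo luminescence after 10 min at room temperature. Every plate was normalised to 0.1 % DMSO and a positive kill control. Curve fitting gave the EC50, censored at the top concentration.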

Experiment [20] deals with CAL-120. The settings on record: 72 h. The essentials:
as §3

Experiment [21] deals with MDA-MB-468. The settings on record: 72 h. The essentials:
as §3

The test system of experiment [22] is MDA-MB-436. Conditions: 72 h. The essentials: as §3
Experiment [23] concerns CAL-51. Conditions: 72 h. The gist of the method:
as §3

For experiment [24], the system named is BT-549. The settings on record: 72 h. The gist of the method: as §3
In experiment [25] the test system is SK-BR-3. The settings on record: 72 h. The essentials: as §3
The test system of experiment [26] is HCC1143. Conditions: 72 h. The essentials:
as §3

The subject of experiment [27] is HCC1937. Conditions: 72 h. The gist of the method: as §3
Experiment [28] relates to CAL-85-1. Conditions: 72 h. The gist of the method:
as §3

As for `NC(=O)c1cccc2cn(-c3ccc([C@@H]4CCCNC4)cc3)nc12` [MK-4827] (10000 nM), the normalised viability in [1] came out at 59.2%; in experiment [2], 94%; in experiment [3], 63.2%; in experiment [4], 40.7%; in [5] it was 73.2%; in experiment [6], 32.7%. For the same molecule, the normalised response is 93.2% in experiment [7]; 87.3% in experiment [8]; 106% in experiment [9]; 85.2% in experiment [10]; 91.4% in [11]; 85.8% in [12]. For the same molecule, the normalised response in [13] turned out to be 94.3%; in [14], 101%; in experiment [15], 87.4%; in experiment [16], 108%; in experiment [17] it was 81.8%; in experiment [18], 69.3%.
As to `O=C(c1cc(Cc2n[nH]c(=O)c3ccccc23)ccc1F)N1CCN(C(=O)C2CC2)CC1` [Olaparib], the “EC50, CellTiter-Glo” value in [19] was 1200 nM; in [20], > 10000 nM; in experiment [21], 1510 nM; in experiment [22], 1040 nM; in experiment [23], 45.4 nM; in [24], 4140 nM.
For the molecule `CO[C@H](C(=O)[C@@H](O)[C@@H](C)O)[C@@H]1Cc2cc3cc(O[C@H]4C[C@@H](O[C@@H]5C[C@@H](O)[C@H](O)[C@@H](C)O5)[C@H](O)[C@@H](C)O4)c(C)c(O)c3c(O)c2C(=O)[C@H]1O[C@H]1C[C@@H](O[C@@H]2C[C@@H](O)[C@@H](O[C@@H]3C[C@](C)(O)[C@H](O)[C@@H](C)O3)[C@@H](C)O2)[C@H](O)[C@@H](C)O1` [Plicamycin] (10000 nM), the normalised viability in experiment [1] was 7.52% and 8.68%; in [2], 22.3% and 16%; in experiment [3], 6.38% and 4.39%; in experiment [4], 3.24% and 3.4%; in [5], 4.34% and 2.26%; in experiment [6], 2.44% and 0.15%. Besides, the normalised response turned out to be 27% in experiment [7]; 6.57% in [8]; 29.1% in experiment [9]; 8.19% in experiment [10]; 4.89% in experiment [11]; 9.55% in [12]. Also, the normalised response in [13] was 19.1%; in experiment [14] it was 21%; in experiment [15] it was 7.32%; in experiment [16], 16.1%; in experiment [17], 9.87%; in [18], 1.22%.
As for `C[C@]12C=CC(=O)C=C1CC[C@@H]1[C@@H]2C(=O)C[C@@]2(C)[C@H]1CC[C@]2(O)C(=O)CO` [Prednisone], in [20], the “EC50, CellTiter-Glo” value was found to be 8390 nM.
With `C[C@]12C=CC(=O)C=C1CC[C@@H]1[C@@H]2C(=O)C[C@@]2(C)[C@H]1CC[C@]2(O)C(=O)CO` [Prednisone] (10000 nM), the normalised viability was 103% in [1]; 122% in experiment [2]; 88% in experiment [3]; 101% in experiment [4]; 103% in experiment [5]; 99.3% in experiment [6]. Also, the normalised response in [7] was determined as 49%; in experiment [8], 103%; in experiment [9], 97.4%; in [10], 102%; in experiment [11] it was 102%; in experiment [12] it was 105%. In addition, the normalised response in experiment [13] was 98.6%; in [14], 95.4%; in experiment [15] it was 100%; in experiment [16], 100%; in experiment [17], 98.6%; in experiment [18], 107%.
As for `CN1CCN(c2nc(C3=C(c4c[nH]c5ccccc45)C(=O)NC3=O)c3ccccc3n2)CC1` [Sotrastaurin] (10000 nM), the normalised viability in experiment [1] amounted to 127%; in experiment [2], 124%; in [3], 75.6%; in experiment [4] it was 108%; in experiment [5], 124%; in [6], 77.1%. The normalised response amounted to 82.7% in experiment [7]; 94.2% in experiment [8]; 67.4% in experiment [9]; 108% in experiment [10]; 82.8% in experiment [11]; 103% in [12]. For the same molecule, the normalised response in experiment [13] is 86.2%; in [14] it was 118%; in experiment [15], 107%; in [16], 108%; in experiment [17], 112%; in experiment [18], 76.4%.
For `CC/C(=C(\c1ccccc1)c1ccc(OCCN(C)C)cc1)c1ccccc1` [Tamoxifen] (10000 nM), the normalised viability turned out to be 120% in experiment [1]; 78.5% in experiment [2]; 17.4% in experiment [3]; 90.2% in [4]; 102% in experiment [5]; 108% in experiment [6]. Further, the normalised response in [7] worked out at 90%; in experiment [8], 95.7%; in [9] it was 58.2%; in experiment [10], 87.8%; in experiment [11], 73%; in [12], 69.3%. Further, the normalised response was 99.1% in experiment [13]; 51.8% in experiment [14]; 60.8% in experiment [15]; 23.5% in experiment [16]; 81.6% in experiment [17]; 85.7% in [18].
Take `Cn1nnc2c(C(N)=O)ncn2c1=O` [Temozolomide] (10000 nM): the normalised viability in experiment [1] was 116%; in experiment [2], 31.3%; in experiment [3] it was 100%; in experiment [4], 87.8%; in [5], 107%; in experiment [6], 116%. Besides, the normalised response came out at 95.2% in experiment [7]; 95.1% in experiment [8]; 101% in [9]; 95.7% in [10]; 108% in experiment [11]; 91.2% in [12]. The normalised response is 95.1% in experiment [13]; 91.6% in [14]; 91.2% in experiment [15]; 97.9% in experiment [16]; 99.2% in experiment [17]; 91.1% in [18].
In the case of `CN1CCc2c(c3ccccc3n2Cc2ccc(C(=O)NO)cc2)C1` [Tubastatin A], the “EC50, CellTiter-Glo” value came out at 8820 nM in experiment [25]; 2350 nM in [26]; 1600 nM in experiment [27]; 297 nM in experiment [23]; 6160 nM in experiment [28]; 7980 nM in experiment [24].
Turning to `CC[C@@H]1C(=O)N(C)c2cnc(Nc3ccc(C(=O)N[C@H]4CC[C@H](N5CCN(CC6CC6)CC5)CC4)cc3OC)nc2N1C(C)C` [Volasertib] (1000 nM), the normalised viability in experiment [1] amounted to 31.4%; in [2], 87.8%; in [3], 30.7%; in experiment [4], 7.23%; in experiment [5], 61.5%; in experiment [6], 35.1%. Besides, the normalised response in [7] is 49.1%; in experiment [8], 41.3%; in experiment [9], 51.2%; in experiment [10], 25.4%; in experiment [11], 28.3%; in experiment [12], 66.4%. The normalised response in experiment [13] was determined as 64.7%; in experiment [14], 66.8%; in [15], 73%; in experiment [16], 62.4%; in [17], 48.6%; in experiment [18], 66.2%.
